Data as given in patent US9737607B2, “Polymer, and pharmaceutical composition employing the same” (INDUSTRIAL TECHNOLOGY RESEARCH INSTITUTE, priority 2014, dated 2017).

Assays:
[1] = tested on: Sal. Typhimurium TA98 strain; test: Ames test, TA98; conditions: without S9, positive control 100 μL/plate
Protocol: (§1) The Ames test was carried out using Sal. Typhimurium TA98 strain and Sal. Typhimurium TA100 strain without an enzyme for activating metabolism of drugs (S9).
(§2) The Ames test was carried out using Sal. Typhimurium TA98 strain and Sal. Typhimurium TA100 strain with an enzyme for activating metabolism of drugs (S9). DMSO (100 μL/plate) was used as negative control, and (+)Benzo[α]pyrene (100 μL/plate) was used as positive control.

[2] = tested on: Sal. Typhimurium TA100 strain; test: Ames test, TA100; conditions: without S9, positive control 100 μL/plate
Protocol: as §1, §2

Nc1ccc([N+](=O)[O-])cc1N [NOPD, 4-nitro-o-phenylenediamine]
TA98 (CFU/plate) [1]: 1200 CFU/plate
TA100 (CFU/plate) [2]: 1019 CFU/plate
